Data taken from US20060183693A1, “Use of BIBN4096 in combination with other antimigraine drugs for the treatment of migraine” (Boehringer Ingelheim Pharma GmbH & Co. KG, priority 2001, published 2006).

Tested on: facial skin vasodilation induced by electrical trigeminal ganglion stimulation
Assay: Facial skin blood flow (vasodilation) after electrical trigeminal ganglion stimulation, laser Doppler flowmetry
Type: in vivo
Conditions: anaesthetized male Wistar rat, 0.1 mg/kg i.v. 5 min prior to second stimulation
Description: Measurement of Facial Skin Blood Flow
Fasted male wistar rats (strain CHbb:THOM, 280-320 g) were anaesthetized with sodium pentobarbitone (initially with 60 mg/kg i.p. and maintained throughout the experiment with an intraperitoneal infusion of 30 mg/kg/h through a 23 G needle using a solution of 10 mg/ml). […] The trachea was cannulated and the animals were artificially respired (80 strokes/min) with room air supplemented with oxygen. The body temperature was maintained at 37° C. by an automated heating pad. The left femoral artery and the left femoral vein were cannulated for the continuous measurement of arterial blood pressure and intravenous administration of test compounds, respectively. Neuromuscular blockade was achieved by intravenous administration of pancuronium bromide (1 mg/kg/0.5 ml, 5 min prior to each electrical stimulation). Heart rate was derived from the blood pressure signal. Blood pressure and heart rate were continuously monitored throughout the course of the experiment to assess the level of anaesthesia and to monitor the cardiovascular effects of the drugs used in this study.
The animals were placed in a stereotaxic frame and a longitudinal incision was made in the scalp. […] The position of the electrodes in the trigeminal ganglia were checked visually at the end of each experiment following removal of the brain. […]

Compound: CN1C[C@H](C(=O)N[C@]2(C)O[C@@]3(O)[C@@H]4CCCN4C(=O)[C@H](Cc4ccccc4)N3C2=O)C[C@@H]2c3cccc4[nH]cc(c34)C[C@H]21 [DHE, Dihydroergotamin]
- % of trigeminus stimulation (mean ± spread): 60.4 ± 4.1%
- % inhibition compared to control value (vs saline control): 27.0%
